The target in experiment [1] is hemolysin alpha from Staphylococcus aureus (Staphylococcus aureus, UniProt P09616). The experiment in a line: cell-based.
For experiment [2], the target named is S. aureus Alpha hemolysin (Staphylococcus aureus, UniProt P09616). The experiment in a line: cell-based. Particulars: A549-LDH Assay activity.
Chain of S. aureus Alpha hemolysin (P09616 27-319 limits assumed): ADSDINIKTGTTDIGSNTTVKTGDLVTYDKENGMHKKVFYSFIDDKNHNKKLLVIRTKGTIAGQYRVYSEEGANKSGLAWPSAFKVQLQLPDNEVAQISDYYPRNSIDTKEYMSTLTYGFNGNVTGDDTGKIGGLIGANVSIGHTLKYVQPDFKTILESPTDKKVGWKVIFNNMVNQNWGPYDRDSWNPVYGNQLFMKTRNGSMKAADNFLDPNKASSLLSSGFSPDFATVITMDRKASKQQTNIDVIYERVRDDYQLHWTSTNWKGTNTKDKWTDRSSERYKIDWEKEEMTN

Chain of hemolysin alpha from Staphylococcus aureus (P09616 27-319 limits assumed): as above

In the case of `C#Cc1cc(NS(=O)(=O)c2cc3[nH]c(=O)c(=O)[nH]c3cc2C)ccc1-c1ccc2oc(C)nc2c1` [Compound 373, N-[3-ethynyl-4-(2-methyl-1,3-benzoxazol-5-yl)phenyl]-7-methyl-2,3-dioxo-1,4-dihydroquinoxaline-6-sulfonamide], the EC50 in experiment [1] and in experiment [2] was < 30 nM in each case.
The molecule `Cc1cc2[nH]c(=O)c(=O)[nH]c2cc1S(=O)(=O)Nc1ccc2c(c1)CCC2` [Compound 79, N-(2,3-dihydro-1H-inden-5-yl)-7-methyl-2,3-dioxo-1,2,3,4-tetrahydroquinoxaline-6-sulfonamide] showed an IC50 in experiment [1] of 100 to 1000 nM. In experiment [2], this molecule showed an EC50 of 30 to 100 nM.
The like results for `COc1cc(NS(=O)(=O)c2cc3[nH]c(=O)c(=O)[nH]c3cc2C)ccc1Br` [Compound 121, N-(4-bromo-3-methoxyphenyl)-7-methyl-2,3-dioxo-1,2,3,4-tetrahydroquinoxaline-6-sulfonamide] were, in that order, 100 to 1000 nM and 1000 to 6000 nM.
With `Cc1cc2[nH]c(=O)c(=O)[nH]c2cc1S(=O)(=O)Nc1ccc(-c2cccc(OC(F)(F)F)c2)c(Cl)c1` [Compound 339, N-[3-chloro-4-[3-(trifluoromethoxy)phenyl]phenyl]-7-methyl-2,3-dioxo-1,4-dihydroquinoxaline-6-sulfonamide], the EC50 in experiment [1] lay within 30 to 100 nM; in experiment [2] it was 100 to 1000 nM.
The like results for `Cc1ccc(-c2ccc(NS(=O)(=O)c3cc4[nH]c(=O)c(=O)[nH]c4cc3C)cc2Cl)cc1C` [Compound 266, N-[3-chloro-4-(3,4-dimethylphenyl)phenyl]-7-methyl-2,3-dioxo-1,4-dihydroquinoxaline-6-sulfonamide] were, in that order, 100 to 1000 nM and 100 to 1000 nM.
Take `Cc1cc2[nH]c(=O)c(=O)[nH]c2cc1S(=O)(=O)Nc1ccc(-c2cc(F)ccc2F)c(Cl)c1` [Compound 295, N-[3-chloro-4-(2,5-difluorophenyl)phenyl]-7-methyl-2,3-dioxo-1,4-dihydroquinoxaline-6-sulfonamide]: the EC50 lay in the range of 30 to 100 nM in experiment [1] and 100 to 1000 nM in experiment [2].
The like results for `Cc1cc2[nH]c(=O)c(=O)[nH]c2cc1S(=O)(=O)Nc1ccc(-c2ccc3cc[nH]c3c2)c(C(F)(F)F)c1` [Compound 369, N-[4-(1H-indol-6-yl)-3-(trifluoromethyl)phenyl]-7-methyl-2,3-dioxo-1,4-dihydroquinoxaline-6-sulfonamide] were, in that order, < 30 nM and 30 to 100 nM.
Take `Cc1cc2[nH]c(=O)c(=O)[nH]c2cc1S(=O)(=O)Nc1ccc(-c2cc(Cl)cc(Cl)c2)c(Cl)c1` [Compound 315, N-[3-chloro-4-(3,5-dichlorophenyl)phenyl]-7-methyl-2,3-dioxo-1,4-dihydroquinoxaline-6-sulfonamide]: the values for the EC50 in experiment [1] and in experiment [2] were 100 to 1000 nM and 1000 to 6000 nM, respectively.
For the molecule `O=c1[nH]c2cc(F)c(S(=O)(=O)Nc3ccc(C4CC4)cc3)cc2[nH]c1=O` [Compound 68, N-(4-cyclopropylphenyl)-7-fluoro-2,3-dioxo-1,2,3,4-tetrahydroquinoxaline-6-sulfonamide], the IC50 in experiment [1] fell in the range of 30 to 100 nM. Moreover, the EC50 in experiment [2] was 100 to 1000 nM.
For the molecule `Cc1cc2[nH]c(=O)c(=O)[nH]c2cc1S(=O)(=O)Nc1ccc(-c2ccc(F)cc2)c(N(C)C)c1` [Compound 255, N-[3-(dimethylamino)-4-(4-fluorophenyl)phenyl]-7-methyl-2,3-dioxo-1,4-dihydroquinoxaline-6-sulfonamide], the EC50 in experiment [1] and in experiment [2] was 100 to 1000 nM throughout.
As to `Cc1cc2[nH]c(=O)c(=O)[nH]c2cc1S(=O)(=O)Nc1ccc(OC(F)(F)F)c(Br)c1` [Compound 322, N-[3-bromo-4-(trifluoromethoxy)phenyl]-7-methyl-2,3-dioxo-1,4-dihydroquinoxaline-6-sulfonamide], the EC50 in experiment [1] and in experiment [2] was 30 to 100 nM throughout.
For `C#Cc1ccc(-c2ccc(NS(=O)(=O)c3cc4[nH]c(=O)c(=O)[nH]c4cc3C)cc2C#C)cc1` [Compound 251, N-(2,4′-diethynyl-[1,1′-biphenyl]-4-yl)-7-methyl-2,3-dioxo-1,2,3,4-tetrahydroquinoxaline-6-sulfonamide], the EC50 in experiment [1] and in experiment [2] was < 30 nM in each case.
Molecule `CC(C)c1cc2[nH]c(=O)c(=O)[nH]c2cc1S(=O)(=O)Nc1ccc(-c2cccc(N(C)C)c2)c(Cl)c1` [Compound 109, N-(2-chloro-3′-(dimethylamino)-[1,1′-biphenyl]-4-yl)-7-isopropyl-2,3-dioxo-1,2,3,4-tetrahydroquinoxaline-6-sulfonamide] returned an IC50 in experiment [1] of 100 to 1000 nM. The same molecule registered an EC50 in experiment [2] of 100 to 1000 nM.
Turning to `Cc1cc2[nH]c(=O)c(=O)[nH]c2cc1S(=O)(=O)Nc1ccc(-c2cn(C)c3ccccc23)c(Cl)c1` [Compound 340, N-[3-chloro-4-(1-methylindol-3-yl)phenyl]-7-methyl-2,3-dioxo-1,4-dihydroquinoxaline-6-sulfonamide], the EC50 in experiment [1] lay in the range of 100 to 1000 nM; in experiment [2], 1000 to 6000 nM.
Take `O=c1[nH]c2cc(Cl)c(S(=O)(=O)Nc3ccc4c(c3)CCCC4)cc2[nH]c1=O` [Compound 174, 7-chloro-2,3-dioxo-N-(5,6,7,8-tetrahydronaphthalen-2-yl)-1,2,3,4-tetrahydroquinoxaline-6-sulfonamide]: in experiment [1], the IC50 lay within 100 to 1000 nM. The EC50 in experiment [2] was in the range of 30 to 100 nM.
The like results for `Cc1cc2[nH]c(=O)c(=O)[nH]c2cc1S(=O)(=O)Nc1ccc(C2CCCCC2)cc1` [Compound 86, N-(4-cyclohexylphenyl)-7-methyl-2,3-dioxo-1,2,3,4-tetrahydroquinoxaline-6-sulfonamide] were, in that order, 100 to 1000 nM and 100 to 1000 nM.
With `Cc1cc2[nH]c(=O)c(=O)[nH]c2cc1S(=O)(=O)Nc1ccc(-c2cccc(O)c2)c(C(F)(F)F)c1` [Compound 366, N-[4-(3-hydroxyphenyl)-3-(trifluoromethyl)phenyl]-7-methyl-2,3-dioxo-1,4-dihydroquinoxaline-6-sulfonamide], the values for the EC50 in experiment [1] and in experiment [2] were < 30 nM and 30 to 100 nM, respectively.
On to `Cc1cc2[nH]c(=O)c(=O)[nH]c2cc1S(=O)(=O)Nc1ccc(-c2ccc(F)c(Cl)c2)c(Cl)c1` [Compound 11, N-(2,3′-dichloro-4′-fluoro-[1,1′-biphenyl]-4-yl)-7-methyl-2,3-dioxo-1,2,3,4-tetrahydroquinoxaline-6-sulfonamide], for which the IC50 in experiment [1] is < 30 nM. Moreover, the EC50 in experiment [2] lay within 100 to 1000 nM.
Consider `CC(=O)c1cccc(-c2ccc(NS(=O)(=O)c3cc4[nH]c(=O)c(=O)[nH]c4cc3C)cc2Cl)c1` [Compound 249, N-[4-(3-acetylphenyl)-3-chloro-phenyl]-7-methyl-2,3-dioxo-1,4-dihydroquinoxaline-6-sulfonamide], for which the values for the EC50 in experiment [1] and in experiment [2] were < 30 nM and 100 to 1000 nM, respectively.
In experiment [1], `O=c1[nH]c2cc(F)c(S(=O)(=O)Nc3ccc(-c4ccsc4)c(Cl)c3)cc2[nH]c1=O` [Compound 82, N-(3-chloro-4-(thiophen-3-yl)phenyl)-7-fluoro-2,3-dioxo-1,2,3,4-tetrahydroquinoxaline-6-sulfonamide] came in with an IC50 of 100 to 1000 nM. For the same molecule, in experiment [2], the EC50 was 1000 to 6000 nM.
The like results for `O=c1[nH]c2cc(Cl)c(S(=O)(=O)Nc3ccc(-c4ccc5c(c4)NCC5)c(Cl)c3)cc2[nH]c1=O` [Compound 46, 7-chloro-N-(3-chloro-4-(indolin-6-yl)phenyl)-2,3-dioxo-1,2,3,4-tetrahydroquinoxaline-6-sulfonamide] were, in that order, 30 to 100 nM and 100 to 1000 nM.

By EC50 is commonly meant the concentration needed to bring the measured effect to its halfway point. A higher EC50 goes with lower potency in that assay. One may read the IC50 as the concentration that inhibits the measured activity by half.
